Experimental data taken from PMC11299587 (ACS infectious diseases, 2024).
Read-outs that look alike come from different tables or passages of the source.

Columns and labels:
[1] = biological target: T1, TgcPheRS (Toxoplasma gondii cytosolic phenylalanyl-tRNA synthetase, alpha subunit) (Toxoplasma gondii, UniProt A0A125YPN6+S8EZ50); experiment: thermal shift assay; assay type: binding
T1 sequence (A0A125YPN6 1-525): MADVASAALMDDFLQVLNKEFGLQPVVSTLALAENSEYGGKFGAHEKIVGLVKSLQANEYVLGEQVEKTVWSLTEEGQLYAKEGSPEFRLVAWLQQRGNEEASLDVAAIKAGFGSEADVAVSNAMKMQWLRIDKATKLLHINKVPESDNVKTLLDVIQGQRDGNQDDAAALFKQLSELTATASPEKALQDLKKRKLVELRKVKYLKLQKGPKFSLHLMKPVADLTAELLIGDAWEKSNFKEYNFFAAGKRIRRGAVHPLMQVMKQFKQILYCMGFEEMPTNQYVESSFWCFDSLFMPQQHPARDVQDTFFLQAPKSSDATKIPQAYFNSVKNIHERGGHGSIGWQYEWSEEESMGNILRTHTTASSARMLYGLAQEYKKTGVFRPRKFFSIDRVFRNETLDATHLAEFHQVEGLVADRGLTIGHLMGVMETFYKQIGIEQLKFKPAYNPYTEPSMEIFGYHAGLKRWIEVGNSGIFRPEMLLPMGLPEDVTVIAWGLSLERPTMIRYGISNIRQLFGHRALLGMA
T1 sequence (S8EZ50 1-675): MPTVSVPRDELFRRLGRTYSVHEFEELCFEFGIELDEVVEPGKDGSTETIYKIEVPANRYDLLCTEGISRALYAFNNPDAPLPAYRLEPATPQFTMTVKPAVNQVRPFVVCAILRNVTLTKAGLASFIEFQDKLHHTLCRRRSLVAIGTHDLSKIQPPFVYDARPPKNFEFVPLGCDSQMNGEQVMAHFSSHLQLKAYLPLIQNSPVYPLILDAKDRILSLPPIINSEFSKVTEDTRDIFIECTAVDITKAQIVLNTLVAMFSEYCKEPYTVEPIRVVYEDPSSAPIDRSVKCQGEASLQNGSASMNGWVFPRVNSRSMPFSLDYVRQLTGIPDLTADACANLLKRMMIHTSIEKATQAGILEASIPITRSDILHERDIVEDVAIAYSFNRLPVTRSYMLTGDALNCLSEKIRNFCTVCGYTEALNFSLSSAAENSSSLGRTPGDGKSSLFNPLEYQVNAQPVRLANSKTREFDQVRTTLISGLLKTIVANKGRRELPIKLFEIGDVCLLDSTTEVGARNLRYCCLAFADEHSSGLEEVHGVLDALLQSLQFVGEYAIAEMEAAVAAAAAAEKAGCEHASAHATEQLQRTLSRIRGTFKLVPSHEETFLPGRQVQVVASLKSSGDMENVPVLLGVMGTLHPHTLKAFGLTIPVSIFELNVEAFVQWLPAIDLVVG

[2] = biological target: T2, HscPheRS (human cytosolic phenylalanyl-tRNA synthetase, alpha subunit) (Homo sapiens, UniProt Q9Y285); experiment: malachite green aminoacylation assay with purified enzyme; assay type: biochemical; details: read-out: BRD7929
T2 sequence (Q9Y285 2-508): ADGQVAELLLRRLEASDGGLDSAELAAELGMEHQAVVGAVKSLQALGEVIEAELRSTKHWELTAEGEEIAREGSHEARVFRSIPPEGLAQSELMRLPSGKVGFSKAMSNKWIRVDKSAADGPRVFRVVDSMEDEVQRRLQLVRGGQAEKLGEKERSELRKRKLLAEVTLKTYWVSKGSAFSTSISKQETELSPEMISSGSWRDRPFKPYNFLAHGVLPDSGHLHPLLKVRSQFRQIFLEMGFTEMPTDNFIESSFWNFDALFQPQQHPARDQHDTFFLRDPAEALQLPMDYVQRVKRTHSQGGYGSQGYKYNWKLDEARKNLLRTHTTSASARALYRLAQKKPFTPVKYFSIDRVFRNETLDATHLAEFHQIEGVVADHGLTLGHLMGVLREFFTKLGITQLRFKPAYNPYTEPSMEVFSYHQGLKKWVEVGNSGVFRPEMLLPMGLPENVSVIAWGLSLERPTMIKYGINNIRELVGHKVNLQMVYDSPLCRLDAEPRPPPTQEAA
T2 sequence (Q9NSD9 1-589 partner): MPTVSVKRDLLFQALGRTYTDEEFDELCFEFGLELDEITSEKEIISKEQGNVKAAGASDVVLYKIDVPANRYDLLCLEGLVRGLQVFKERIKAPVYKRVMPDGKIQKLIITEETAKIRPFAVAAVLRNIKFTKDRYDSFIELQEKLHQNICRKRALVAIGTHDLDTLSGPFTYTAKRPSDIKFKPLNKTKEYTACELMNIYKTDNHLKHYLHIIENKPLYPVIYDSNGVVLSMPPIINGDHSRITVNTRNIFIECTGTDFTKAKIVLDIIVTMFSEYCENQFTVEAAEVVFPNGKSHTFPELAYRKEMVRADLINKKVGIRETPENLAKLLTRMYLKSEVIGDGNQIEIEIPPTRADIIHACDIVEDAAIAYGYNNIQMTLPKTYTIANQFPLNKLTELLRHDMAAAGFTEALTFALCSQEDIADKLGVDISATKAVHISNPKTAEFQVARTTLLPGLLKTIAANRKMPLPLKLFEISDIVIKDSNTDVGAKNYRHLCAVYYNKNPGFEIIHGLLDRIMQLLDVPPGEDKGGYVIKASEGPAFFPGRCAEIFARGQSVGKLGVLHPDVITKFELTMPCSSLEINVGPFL

[3] = biological target: T1, TgcPheRS (Toxoplasma gondii cytosolic phenylalanyl-tRNA synthetase, alpha subunit); experiment: as above; assay type: biochemical
[4] = biological target: T2, HscPheRS (human cytosolic phenylalanyl-tRNA synthetase, alpha subunit); experiment: as above; assay type: biochemical
[5] = biological target: T2, HscPheRS (human cytosolic phenylalanyl-tRNA synthetase, alpha subunit); experiment: as above; assay type: biochemical; details: read-out: BRD2108
[6] = biological target: T1, TgcPheRS (Toxoplasma gondii cytosolic phenylalanyl-tRNA synthetase, alpha subunit); experiment: as above; assay type: biochemical; remark: listed apart in the source

## COc1ccc(NC(=O)N2CCCCN3[C@H](CN(C)C)[C@H](c4ccc(C#Cc5ccccc5)cc4)[C@@H]3C2)cc1 [BRD7929]
[1]
  BRD7929: 11.6 °C
[2]
  IC50: 18 µM

## COc1ccc(NC(=O)N2CCCN3CC[C@H](c4ccc(C#CC5=CCCCC5)cc4)[C@@H]3C2)cc1 [mCMY416]
[3]
  IC50: 0.24 µM
[4]
  IC50: 3.58 µM

## BRD2108
[5]
  IC50: 15.6 µM
[6]
  IC50: 0.42 µM
